# Laboratory results published in patent US11998539B2, “Substituted aminoquinolones as DGKalpha inhibitors for immune activation” (Bayer Aktiengesellschaft, priority 2019, dated 2024).
# Biological target: DGKα (Homo sapiens (Human), UniProt P23743)
# Assay: Human DGKα kinase activity inhibition assay (ADP-Glo)
# Assay type: biochemical
# Conditions: recombinant full-length human DGKα, 55 μM ATP, 7 μM 1,2-dioleoyl-sn-glycerol, read-out: IC50 values of examples in in vitro human DGKa kinase activity inhibition assays
# How it was run: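 Activity was measured as ADP production, detected by luciferase luminescence after removal of unused ATP. The enzyme was baculovirus-expressed full-length human DGKα with a C-terminal FLAG tag. The substrate was 1,2-dioleoyl-sn-glycerol in detergent micelles, and compounds came from 100× DMSO solutions.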
# Sequence of DGKα (P23743 other isoform, or with tags, fused parts or gaps): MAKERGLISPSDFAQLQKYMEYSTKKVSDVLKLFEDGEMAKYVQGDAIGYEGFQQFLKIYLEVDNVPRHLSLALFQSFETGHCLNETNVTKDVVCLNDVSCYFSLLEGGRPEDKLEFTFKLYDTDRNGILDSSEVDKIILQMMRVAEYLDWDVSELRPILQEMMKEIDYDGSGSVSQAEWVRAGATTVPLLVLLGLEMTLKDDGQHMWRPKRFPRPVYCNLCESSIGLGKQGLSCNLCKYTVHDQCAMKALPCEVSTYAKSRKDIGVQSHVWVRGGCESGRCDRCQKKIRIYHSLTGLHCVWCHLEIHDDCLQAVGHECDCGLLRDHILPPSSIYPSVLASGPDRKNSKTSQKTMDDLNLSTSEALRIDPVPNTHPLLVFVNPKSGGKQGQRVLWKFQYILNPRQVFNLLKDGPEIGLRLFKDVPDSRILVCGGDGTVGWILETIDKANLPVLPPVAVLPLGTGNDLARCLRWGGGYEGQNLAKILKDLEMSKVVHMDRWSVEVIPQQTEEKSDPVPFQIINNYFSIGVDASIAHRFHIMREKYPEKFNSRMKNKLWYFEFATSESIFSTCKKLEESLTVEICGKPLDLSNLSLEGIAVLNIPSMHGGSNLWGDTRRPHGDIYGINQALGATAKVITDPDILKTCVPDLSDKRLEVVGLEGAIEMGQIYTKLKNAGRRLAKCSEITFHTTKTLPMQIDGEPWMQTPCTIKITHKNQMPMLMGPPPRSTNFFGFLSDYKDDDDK
row,Compound,IC50
1,"Cc1ccc2oc(C3CCN(c4c(C(N)=O)c(=O)n(C)c5ccc(P(C)(C)=O)cc45)CC3)nc2c1 [Example 453, 6-(dimethylphosphoryl)-1-methyl-4-[4-(5-methyl-1,3-benzoxazol-2-yl)piperidin-1-yl]-2-oxo-1,2-dihydroquinoline-3-carboxamide]",598 nM
2,"COCCNc1cc2c(cc1C)c(N1CCC(c3nc4cc(C)ccc4o3)CC1)c(C(N)=O)c(=O)n2C [Example 552, 7-[(2-methoxyethyl)amino]-1,6-dimethyl-4-[4-(5-methyl-1,3-benzoxazol-2-yl)piperidin-1-yl]-2-oxo-1,2-dihydroquinoline-3-carboxamide]",1.6 nM
3,"CNC(=O)c1c(N2CCC(C)(c3nc4ccccc4o3)CC2)c2ccccc2n(C)c1=O [Example 449, 4-[4-(1,3-benzoxazol-2-yl)-4-methylpiperidin-1-yl]-N,1-dimethyl-2-oxo-1,2-dihydroquinoline-3-carboxamide]",13 nM
4,"Cc1ccc2oc(C3CCN(c4c(C#N)c(=O)n(C)c5ccc(P(C)(C)=O)cc45)CC3)nc2c1 [Example 338, 6-(dimethylphosphoryl)-1-methyl-4-[4-(5-methyl-1,3-benzoxazol-2-yl)piperidin-1-yl]-2-oxo-1,2-dihydroquinoline-3-carbonitrile]",86 nM
5,"Cc1ccc2oc(C3CCN(c4c(C(N)=O)c(=O)n(C)c5cc(C(F)(F)F)ccc45)CC3)nc2c1 [Example 307, 1-methyl-4-[4-(5-methyl-1,3-benzoxazol-2-yl)piperidin-1-yl]-2-oxo-7-(trifluoromethyl)-1,2-dihydroquinoline-3-carboxamide]",5.7 nM
6,"Cc1ccc(C2CCN(c3c(C#N)c(=O)n(C)c4ccccc34)CC2)cc1 [Example 83, 1-methyl-4-[4-(4-methylphenyl)piperidin-1-yl]-2-oxo-1,2-dihydroquinoline-3-carbonitrile]",4.4 nM
7,"CCCc1noc(C2CCN(c3c(C#N)c(=O)n(C)c4ccccc34)CC2)n1 [Example 148, 1-methyl-2-oxo-4-[4-(3-propyl-1,2,4-oxadiazol-5-yl)piperidin-1-yl]-1,2-dihydroquinoline-3-carbonitrile]",369 nM
8,"COc1ccc2c(c1)c(N1CCC(c3nc(-c4cccc(C)c4)no3)CC1)c(C(N)=O)c(=O)n2C [Example 520, 6-methoxy-1-methyl-4-{4-[3-(3-methylphenyl)-1,2,4-oxadiazol-5-yl]piperidin-1-yl}-2-oxo-1,2-dihydroquinoline-3-carboxamide]",37 nM
9,"Cc1cccc(-c2nnc(C3CCN(c4c(C#N)c(=O)n(C)c5ccccc45)CC3)o2)c1 [Example 353, 1-methyl-4-{4-[5-(3-methylphenyl)-1,3,4-oxadiazol-2-yl]piperidin-1-yl}-2-oxo-1,2-dihydroquinoline-3-carbonitrile]",254 nM
10,"Cc1cccc(-c2nnc(C3CCN(c4c(C(N)=O)c(=O)n(C)c5ccc(Br)cc45)CC3)o2)c1 [Example 526, 6-bromo-1-methyl-4-{4-[5-(3-methylphenyl)-1,3,4-oxadiazol-2-yl]piperidin-1-yl}-2-oxo-1,2-dihydroquinoline-3-carboxamide]",27 nM
11,"Cn1c(=O)c(C(N)=O)c(N2CCC(c3nnc(-c4ccccc4)o3)CC2)c2cc(Br)ccc21 [Example 524, 6-bromo-1-methyl-2-oxo-4-[4-(5-phenyl-1,3,4-oxadiazol-2-yl)piperidin-1-yl]-1,2-dihydroquinoline-3-carboxamide]",45 nM
12,"COC1(c2cc3ccccc3s2)CCN(c2c(C(N)=O)c(=O)n(C)c3ccccc23)CC1 [Example 455, 4-[4-(1-benzothiophen-2-yl)-4-methoxypiperidin-1-yl]-1-methyl-2-oxo-1,2-dihydroquinoline-3-carboxamide]",1.9 nM
13,"Cn1ccc2c(F)cc(C3CCN(c4c(C(N)=O)c(=O)n(C)c5ccccc45)CC3)cc21 [Example 471, 4-[4-(4-fluoro-1-methyl-1H-indol-6-yl)piperidin-1-yl]-1-methyl-2-oxo-1,2-dihydroquinoline-3-carboxamide]",3.9 nM
14,"COc1ccc2c(c1)c(N1CCC(c3nc4ccc(C)cc4o3)CC1)c(C#N)c(=O)n2C [Example 190, 6-methoxy-1-methyl-4-[4-(6-methyl-1,3-benzoxazol-2-yl)piperidin-1-yl]-2-oxo-1,2-dihydroquinoline-3-carbonitrile]",5.7 nM
15,"Cc1ccc2oc(C3CCN(c4c(C#N)c(=O)n(C)c5ccccc45)CC3C)nc2c1 (mixture of isomers) [Example 111, 1-methyl-4-[3-methyl-4-(5-methyl-1,3-benzoxazol-2-yl)piperidin-1-yl]-2-oxo-1,2-dihydroquinoline-3-carbonitrile, mixture of stereoisomers]",3.2 nM
16,"Cn1c(=O)c(C#N)c(N2CCC(c3nc4cc(C(F)(F)F)ccc4s3)CC2)c2ccccc21 [Example 23, 1-methyl-2-oxo-4-{4-[5-(trifluoromethyl)-1,3-benzothiazol-2-yl]piperidin-1-yl}-1,2-dihydroquinoline-3-carbonitrile]",12 nM
17,"Cn1c(=O)c(C(N)=O)c(N2CCC(F)(c3nc4ccccc4o3)CC2)c2ccccc21 [Example 488, 4-[4-(1,3-benzoxazol-2-yl)-4-fluoropiperidin-1-yl]-1-methyl-2-oxo-1,2-dihydroquinoline-3-carboxamide]",1.6 nM

row,Compound,IC50
1,"Cc1ccc2oc(C3(C)CCN(c4c(C(N)=O)c(=O)n(C)c5cc(O)c(Br)cc45)CC3)nc2c1 [Example 512, 6-bromo-7-hydroxy-1-methyl-4-[4-methyl-4-(5-methyl-1,3-benzoxazol-2-yl)piperidin-1-yl]-2-oxo-1,2-dihydroquinoline-3-carboxamide]",0.8 nM
2,"CCn1c(=O)c(C#N)c(N2CCC(c3nc4ccccc4o3)CC2)c2ccccc21 [Example 332, 4-[4-(1,3-benzoxazol-2-yl)piperidin-1-yl]-1-ethyl-2-oxo-1,2-dihydroquinoline-3-carbonitrile]",17 nM
3,"COCCOc1ccc2c(N3CCC(c4nc5cc(C)ccc5o4)CC3)c(C#N)c(=O)n(C)c2c1 [Example 383, 7-(2-methoxyethoxy)-1-methyl-4-[4-(5-methyl-1,3-benzoxazol-2-yl)piperidin-1-yl]-2-oxo-1,2-dihydroquinoline-3-carbonitrile]",5.1 nM
4,"COc1cccc(-c2csc(C3CCN(c4c(C#N)c(=O)n(C)c5ccccc45)CC3)n2)c1 [Example 372, 4-{4-[4-(3-methoxyphenyl)-1,3-thiazol-2-yl]piperidin-1-yl}-1-methyl-2-oxo-1,2-dihydroquinoline-3-carbonitrile]",14 nM
5,"Cc1ccc2c(c1)c(N1CCCC(c3nc4ccccc4o3)CC1)c(C(N)=O)c(=O)n2C (stereo not drawn) [Example 205, 4-[4-(1,3-benzoxazol-2-yl)azepan-1-yl]-1,6-dimethyl-2-oxo-1,2-dihydroquinoline-3-carboxamide]",4.8 nM
6,"Cc1ccc2oc(C3CCN(c4c(C#N)c(=O)n(C)c5cc(OC6CCOC6)ccc45)CC3)nc2c1 (single isomer, unassigned) [Example 380, 1-methyl-4-[4-(5-methyl-1,3-benzoxazol-2-yl)piperidin-1-yl]-2-oxo-7-[(oxolan-3-yl)oxy]-1,2-dihydroquinoline-3-carbonitrile]",0.4 nM
7,"Cc1ccc2oc(C3(C)CCN(c4c(C#N)c(=O)n(C)c5cc(F)ccc45)CC3)nc2c1 [Example 237, 7-fluoro-1-methyl-4-[4-methyl-4-(5-methyl-1,3-benzoxazol-2-yl)piperidin-1-yl]-2-oxo-1,2-dihydroquinoline-3-carbonitrile]",5 nM
8,"Cn1c(=O)c(C#N)c(N2CCC(c3nc4ccc(Cl)cc4o3)CC2)c2ccc(Br)cc21 [Example 32, 7-bromo-4-[4-(6-chloro-1,3-benzoxazol-2-yl)piperidin-1-yl]-1-methyl-2-oxo-1,2-dihydroquinoline-3-carbonitrile]",6 nM
9,"4-[4-(1,3-benzoxazol-5-yl)piperidin-1-y-1-methyl-2-oxo-1,2-dihydroquinoline-3-carbonitrile [Example 67]",85 nM
10,CN1CCN(c2ccc(C3CCN(c4c(C#N)c(=O)n(C)c5ccccc45)CC3)cc2)C(=O)C1 [Example 66],78 nM
11,"Cc1ccc2oc(C3CCN(c4c(C(N)=O)c(=O)n(C)c5ccc(C6CCC6)cc45)CC3)nc2c1 [Example 506, 6-cyclobutyl-1-methyl-4-[4-(5-methyl-1,3-benzoxazol-2-yl)piperidin-1-yl]-2-oxo-1,2-dihydroquinoline-3-carboxamide]",574 nM
12,"COc1ccc(C2CCN(c3c(C#N)c(=O)n(C)c4cc(C)ccc34)CC2)cc1 [Example 91, 4-[4-(4-methoxyphenyl)piperidin-1-yl]-1,7-dimethyl-2-oxo-1,2-dihydroquinoline-3-carbonitrile]",3.1 nM
13,"Cn1c(=O)c(C#N)c(N2CCC(C)(c3nc4ccccc4o3)CC2)c2ccc(C(F)(F)F)cc21 [Example 292, 4-[4-(1,3-benzoxazol-2-yl)-4-methylpiperidin-1-yl]-1-methyl-2-oxo-7-(trifluoromethyl)-1,2-dihydroquinoline-3-carbonitrile]",3.2 nM
14,"Cc1ccc2oc(C3(C)CCN(c4c(C#N)c(=O)n(C)c5c(OC6CC6)cccc45)CC3)nc2c1 [Example 262, 8-(cyclopropyloxy)-1-methyl-4-[4-methyl-4-(5-methyl-1,3-benzoxazol-2-yl)piperidin-1-yl]-2-oxo-1,2-dihydroquinoline-3-carbonitrile]",36 nM
15,"COc1ccc(C2CCN(c3c(C#N)c(=O)n(C)c4ccc(Br)cc34)CC2)cc1 [Example 167, 6-bromo-4-[4-(4-methoxyphenyl)piperidin-1-yl]-1-methyl-2-oxo-1,2-dihydroquinoline-3-carbonitrile]",3.2 nM
16,"COc1ccc(C2CCN(c3c(C#N)c(=O)n(C)c4ccc(S(C)(=O)=O)cc34)CC2)cc1 [Example 178, 6-(methanesulfonyl)-4-[4-(4-methoxyphenyl)piperidin-1-yl]-1-methyl-2-oxo-1,2-dihydroquinoline-3-carbonitrile]",298 nM
